“Also recorded” adds a separate entry of the source.
Key:
[1] = tested on: MCF-7 breast adenocarcinoma cells; assay: Xenograft assay of human tumors in athymic nude mice, MCF-7; format: in vivo
Text: (§1) Xenograft Assay of Human Tumors.
(§2) Control mice received vehicle only.

[2] = Maximal tolerable dose study in beagle dogs, clinical observations; format: in vivo; conditions: over four hours
[3] = tested on: LNCaP prostate carcinoma cells; assay: Xenograft assay of human tumors in athymic nude mice, LNCaP; format: in vivo, mouse
Text: as §1, §2

head and neck cancer = assay: Ex-US clinical study in head and neck cancer, daily M4N with or without G4N followed by surgical resection; format: in vivo, human
[4] = Toxicokinetic analysis of M4N serum concentration in beagle dogs; conditions: dog, in vivo
Experimental: Blood samples from the CET group animals were collected via the jugular vein on Study Day (SD) 1, SD 3, SD 6, and SD 8 at the following timepoints: predose, 0.25, 0.5, 1, 2, 4, 8, and 16 hours following the completion of the approximate 4-hour infusion.
Blood samples from the DMSO group animals were collected via the cephalic vein on SD 1, SD 3, SD 6, and SD 8 at the following timepoints: predose, 0.25, 0.5, 1, 2, 4, 8, and 16 hours following the final injection dose of M4N-DMSO.
Blood samples collected from both groups of animals were processed for plasma and serum for TK analysis.
The plasma and serum samples were sent to MedTox Laboratories, the Sponsor's designated laboratory for TK analysis. TK analysis of M4N plasma and serum concentration-time data was performed using a validated method (M200406) by MedTox Laboratories and analyzed by noncompartmental methods to obtain estimates of toxicokinetic parameters (where data allow), but not necessarily limited to, Cmax, Tmax and AUC.

[5] = tested on: Hep3B hepatocellular carcinoma cells; assay: Xenograft assay of human tumors in athymic nude mice, Hep3B; format: in vivo
Text: as §1, §2

[6] = tested on: HPV-16 transformed immortal mouse epithelial cells (C3); conditions: intratumor injection; cited from earlier work
Solubility character = format: physicochemical
[7] = tested on: various human tumor cells; assay: Cell culture analyses of tumor cell growth; format: cell-based
[8] = Tissue distribution after long-term (14 weeks) oral feeding of M4N (HPLC); format: in vivo, mice; conditions: 14 weeks continuous oral feeding of M4N food balls
Experimental: Tissue Distribution and Toxicity Analysis Following Short-Term and Long-Term Oral Feeding. For short-term feeding experiments, 30 mg of M4N dissolved in 300 μL castor oil was orally administered to each of 6 mice. At 2 h, 4 h, and 8 h post-administration time points, 2 mice were sacrificed, the organs and blood were collected, and the M4N extracted and quantitated as described below. In long-term feeding experiments, mice were fed food balls consisting of M4N dissolved in corn oil and Basal Mix (Harlan Teklad; Madison, Wis.; Cat. # TD 02273) for 14 weeks. Food balls weighed 9 g and contained 242 mg M4N each. Two mice, one male and one female, were reserved for long-term drug retention studies; and fourteen mice, both male and female, were used for long-term drug toxicity studies. At the end of feeding, mice were sacrificed, the organs and blood were collected, and the M4N extracted and quantitated as described below.
M4N Extraction and HPLC Analysis Following Oral Feeding. Organs and blood were harvested from M4N-fed mice, then frozen overnight at −80° C. Prior to freezing, gastro-intestinal organs (stomach, small intestine, colon) were cut open longitudinally and washed thoroughly with PBS to remove any contents. The following day, organs were cut into small pieces on dry ice with a razor blade, dried in a Speed-vac, then crushed into a rough powder using a mortar and pestle. Samples were extracted overnight in 100% ethanol with shaking. Samples were centrifuged and the supernatant collected. Pellets were extracted two more times in 100% ethanol overnight with shaking. The pooled ethanol extracts were evaporated on bench top for several days, then re-extracted with ethyl acetate, and dried completely in a Speed-vac. The dried samples were then analyzed quantitatively by HPLC and M4N was identified by mass spectroscopy using pure M4N as a standard.
HPLC Quantitation of M4N. Samples from a single mouse at each time point were sent to KP Pharmaceuticals (Bloomington, Ind.) for HPLC analysis. HPLC conditions were described as follows: 35%:0.1% TFA in H2O, 65%=“CAN.” The M4N standard was prepared by diluting 10.01 mg M4N in 100 mL of CAN, then sonicating for 5 min. (2002 ng/injection). The samples were prepared by adding 400 μL EtOH and sonicating for 2 min. or until complete dissolution was achieved. The injection volume for the samples was 100 μL.
The objective of the long-term feeding experiments was to measure the steady state levels of M4N in various mouse organs following continuous oral administration for 14 weeks. Food balls weighing approximately 9 g and containing approximately 280 mg M4N were continually fed to wild-type mice for 14 weeks. A single 9 g food ball is consumed by a single mouse in about 3 days, which translates to […] of M4N consumed or administered daily. […] Between 350 μg and 900 μg M4N per gram tissue was measured in the GI tract organs and the spleen; 15 μg/g to 30 μg/g M4N was measured in the lungs, pancreas, seminal vesicles, blood, and fat; and 5 μg/g to 13 μg/g M4N was measured in the heart, liver, kidneys, and bladder.

[9] = MCF-7, of 10 M4N-treated tumors, 21 days i.p. treatment
[10] = LNCaP, of 11 M4N-treated tumors, 21 days i.p. treatment
[11] = Hep 3B, of 7 M4N-treated tumors, 21 days i.p. treatment

For COc1ccc(C[C@@H](C)[C@@H](C)Cc2ccc(OC)c(OC)c2)cc1OC [M4N, meso-1,4-bis(3,4-dimethoxyphenyl)-2,3-dimethylbutane], the “Reduction in mean tumor volume versus control” value (“Reduction” below) ([1]; MCF-7, after 21 days systemic M4N treatment) was 74%, the “DOTV: number of tumors with decrease in volume from the original tumor volume” value (“DOTV: number of tumors with decrease” for short) [1, 9] was 7 and the “IOTV: number of tumors with increase in volume from the original tumor volume” value (shortened to “IOTV: number of tumors with increase”) [1, 9] was 3. The “Tumor Volume Increase (%) - 21 Days Treatment, M4N-Treatment” value (“Tumor Volume Increase (%)” below) ([1]; MCF-7 xenograft, 2 mg M4N i.p. daily for 3 weeks) was 84%, the “Ratio of Mean M4N-Treated Tumor Size to Control Tumor Size” value (shortened to “Ratio of Mean M4N-Treated Tumor Size”) ([1]; MCF-7 xenograft, 2 mg M4N i.p. daily, 21 days) was 25.5% and the “Dose safely administered by intravenous infusion” value ([2]; CET vehicle) was “up to 10 mg/kg”. The “Dose safely administered intravenously” value ([2]; DMSO vehicle) was “up to 100 mg/kg”, the “Tumor Volume Increase (%)” value ([3]; LNCaP xenograft, 2 mg M4N i.p. daily for 3 weeks) was 25% and the “Ratio of Mean M4N-Treated Tumor Size” value ([3]; LNCaP xenograft, 2 mg M4N i.p. daily, 21 days) was 46.3%. The “Reduction” value ([3]; LNCaP, after 21 days systemic M4N treatment) was 53%, the “DOTV: number of tumors with decrease” value [3, 10] was 9 and the “IOTV: number of tumors with increase” value [3, 10] was 2. For the same compound, the “Growth of LNCaP xenograft tumors” value ([3]; systemic oral administration of M4N) was “effectively suppresses the growth”, the “Dose delivered without drug-related toxicity” value (head and neck cancer; for up to five days, with or without concomitant G4N 20 mg per day) was ≤ 20 mg per day and the “Patients remaining disease free” value (head and neck cancer; long-term follow ups, M4N with or without G4N, then surgical resection) was 64%. For the same compound, the “Efficacy in terms of induction of necrosis” value (head and neck cancer; patients that completed the treatment) was “over 80%”, the “Blood levels of M4N achieved with minimal toxicity” value [4] was “up to 14,000 ng/ml” and the “Tumor Volume Increase (%)” value ([5]; Hep 3B xenograft, 2 mg M4N i.p. daily for 3 weeks) was 113%. For the same compound, the “Ratio of Mean M4N-Treated Tumor Size” value ([5]; Hep 3B xenograft, 2 mg M4N i.p. daily, 21 days) was 19.3%, the “Reduction” value ([5]; Hep 3B, after 21 days systemic M4N treatment) was 80% and the “DOTV: number of tumors with decrease” value [5, 11] was 2. The “IOTV: number of tumors with increase” value [5, 11] was 5, the “Suppression of tumor growth / tumoricidal activity” value [6] was “substantial tumoricidal activity; also recorded: some evidence of suppression of tumor growth” and the “Solubility in dimethyl sulfoxide” value (Solubility character) was “soluble in dimethyl sulfoxide”. For the same compound, the “Water solubility / hydrophilic or lipophilic character” value (Solubility character) was “hydrophobic or lipophilic”, the “Growth of human tumor cells in culture” value [7] was “effectively prevent the growth” and the “M4N” value ([8]; Bladder) was 6.24 µg/g. For the same compound, the “M4N” value ([8]; Blood) was 23.13 µg/g, the “M4N” value ([8]; Caecum) was 440.23 µg/g and the “M4N” value ([8]; Fat) was 17.41 µg/g. For the same compound, the “M4N” value ([8]; Heart) was 12.62 µg/g, the “M4N” value ([8]; Kidneys) was 8.33 µg/g and the “M4N” value ([8]; Lg. Intestine) was 350.88 µg/g. For the same compound, the “M4N” value ([8]; Liver) was 5.89 µg/g, the “M4N” value ([8]; Lungs) was 23.09 µg/g and the “M4N” value ([8]; Pancreas) was 28.81 µg/g. The “M4N” value ([8]; Seminal Vesicles) was 16.79 µg/g, the “M4N” value ([8]; Small Intestine) was 906.27 µg/g and the “M4N” value ([8]; Spleen) was 302.78 µg/g. For the same compound, the “M4N” value ([8]; Stomach) was 409.27 µg/g.

Source: patent US7728036B2, “Methods for delivery of catecholic butanes for treatment of tumors” (priority 2003, dated 2010)
